Values quoted from earlier work, collected in paper PMC7589057, “Synthesis of Hantzsch Adducts as Cholinesterases and Calcium Flux inhibitors, Antioxidants and Neuroprotectives” (International Journal of Molecular Sciences, 2020).
Like-named read-outs stand apart in the source and are kept apart here.

How the values were obtained:
[1] = system: SH-SY5Y cells; parameters: method as in PMID 27736061; conditions: 0.1 µM, cited from earlier work
[2] = system: SH-SY5Y cells; parameters: method as in PMID 27736061; conditions: 0.1 µM; cited from earlier work

Question: Which results are given for COc1ccc2[nH]cc(CCNC(C)=O)c2c1 [MEL, melatonin]?
Answer: O/R (%) neuroprotection ([1]; listed as Melatonin): 66.6 ± 3.01 ***[10] %; O/R (%) neuroprotection ([1]; listed as melatonin): 66.6%; H2O2 (%) neuroprotection [2]: 55.4 ± 7.73 *[10] %
